According to PMC3857224, “Inhibition of DNA Glycosylases via Small Molecule Purine Analogs” (PLoS ONE, 2013):

What was measured:
[1] = target: T1, T4 pyrimidine dimer DNA glycosylase (T4-pdg) (Enterobacteria phage T4, UniProt P04418); experiment: UV-irradiated plasmid nicking assay; type: biochemical; details: 40 µM inhibitor, 15 min; read-out: inhibition of T4-pdg activity (reduction in nicks per plasmid)
T1 construct: made in house
Experimental: T4-pdg activity was assayed by a plasmid nicking assay with minor modifications of a previously described method, [27]. Supercoiled pBR322 plasmid was irradiated with 254 nm ultraviolet (UV) light (100 µW/cm^2) for 98 sec to produce approximately 10 thymine dimers per plasmid molecule. Irradiated plasmid (10 nM) was then incubated in the presence or absence of inhibitors with 130 pM active T4-pdg, as assessed by […] trapping. Reactions were started by addition of DNA, incubated for 15 min at 37°C in reaction buffer (10 mM Tris pH 8.0, 1 mM EDTA, 125 mM NaCl, 100 µg/ml BSA), and stopped by the addition of SDS to a final concentration of 1%. Plasmid DNAs (form I, II and III corresponding to supercoiled, nicked circular and linear, respectively) were resolved on a 0.9% agarose gel and visualized with 0.5 µg/ml ethidium bromide. Gel images were captured on a ChemiImager 5500 (Alpha Innotech, Santa Clara, CA) gel documentation system and densitometry was performed using Image J software. Percent remaining form I DNA was calculated by applying a factor of 1.42 to the form I band intensity and then dividing form I by the sum of form I, II and III. The number of nicks per molecule were estimated based on a Poisson distribution, in which nicks per molecule = -ln (mass fraction of form I DNA remaining), and inhibition of activity was measured as the percentage reduction in the number of nicks per plasmid molecule compared to reactions without inhibitor.
In humans, several glycosylases, including OGG1, NTH1, NEIL2, and NEIL3 may participate in the removal of a wide variety of oxidized bases. […] To address this question, assays were designed to measure inhibition of OGG1 and NTH1, as well as the Escherichia coli glycosylase-AP lyase, FPG. In order to compare the relative efficiencies of inhibition between NEIL1 and these other glycosylase/AP lyases, it was necessary to identify common DNA substrates and pair-wise analyze inhibition data. To compare inhibition of NEIL1 versus NTH1, oligodeoxynucleotides were synthesized that contained a site-specific thymine glycol (TG) adduct, while comparative inhibition data for OGG1 and FPG were collected using an oligodeoxynucleotide containing a site-specific 8-oxo-Gua. In control reactions (no inhibitor added), each enzyme generated the expected incised products, confirming the validity of the assay. […] Additionally, experiments were designed to test whether compounds P2, P6, P7, and P8 could inhibit a pyrimidine dimer-specific glycosylase/AP lyase, T4 pyrimidine dimer DNA glycosylase (T4-pdg) that also has an associated AP lyase activity, using an UV-irradiated plasmid nicking assay. […]

wild-type MEFs = experiment: cell survival assay (CellTiter Glo), wild-type MEFs; type: cell-based, mouse; details: WT MEFs, 72 h exposure
Experimental: Wild-type or Neil1-KO MEFs were plated in a 96-well opaque walled dish (2000 cells/well) and incubated for 18 h to allow for attachment. Inhibitor (80 µL) diluted in DMEM was added to the cells at various concentrations ranging from 0–20 µM, and incubated for an additional 72 h. Cell viability was measured using the CellTiter Glo reagent (Promega, Madison, WI) and was prepared as per the manufacturer's instructions, with 50 µL of the reconstituted reagent added to each well. Cells were incubated for 10 min on an orbital shaker to induce cell lysis. Survival was measured by luminescence on a microplate reader (TECAN) and normalized to no-treatment control.
To experimentally address this question, mouse embryo fibroblasts from wild-type and Neil1 knockout mice were treated with increasing concentrations of P2, P6, P7, and P8. Cell survival was measured after a 72 h exposure. For all four compounds, the 37% survival was greater in the Neil1 knockout cells relative to the wild-type. The D37 ratios for WT: Neil1 were as follows: P2: 6∶10 µM; P6: 5∶8 µM; P7: 12∶15 µM; and P8: 7∶11 µM, respectively. […] In addition to modulating BER, there are potentially many other candidate enzymes that may be compromised by the introduction of these compounds, including but not limited to kinases, DNA and RNA polymerases, other DNA repair complexes or helicases. However, given that the concentrations of these compounds are several orders of magnitude higher than what would be considered as a pharmacologically-relevant dose, detailed mechanistic analyses of the current set of compounds is highly premature. Such studies and the development of appropriate cell culture and animal models will need to be generated concomitantly with the evolution of higher affinity, greater specificity molecules.

[2] = test system: NEIL1, NTH1, OGG1 and FPG; experiment: glycosylase/AP lyase cleavage assays with common substrates (Tg, 8-oxo-Gua) across glycosylases; type: biochemical, human; Escherichia coli (FPG); details: all enzymes except for NTH1
Experimental: The 384-well fluorogenic assay was carried out in a 20 µL reaction mixture in 20 mM Tris-HCl pH 8.0, 100 mM KCl, and 0.1% BSA, with 5 nM active enzyme and 50 nM substrate. Possible inhibitors were incubated with the enzyme for at least 5 min at room temperature in a black, low-volume 384-well plate before addition of an equal volume of substrate to start the reaction. The plates were spun for 30 s at 1000 rcf to remove bubbles. The reactions were incubated at 37°C and fluorescence data collected on an Infinite M200 (Tecan, Mannedorf, Switzerland) equipped with standard optics (excitation filter 525 nm, and emission filter 598 nm). For the gel-based assay, reactions were initiated as described for the fluorogenic assay, but quenched with 20 µL 95% formamide at 20 min. The products were separated by electrophoresis through a 15% polyacrylamide gel containing 8 M urea and visualized by a Typhoon scanner (GE Life Sciences, Piscataway, NJ). The fraction of cleaved product was measured using ImageQuant software and analyzed using GraphPad Prism 6.
In humans, several glycosylases, including OGG1, NTH1, NEIL2, and NEIL3 may participate in the removal of a wide variety of oxidized bases. […] To address this question, assays were designed to measure inhibition of OGG1 and NTH1, as well as the Escherichia coli glycosylase-AP lyase, FPG. […]

T1 sequence (P04418 whole entry): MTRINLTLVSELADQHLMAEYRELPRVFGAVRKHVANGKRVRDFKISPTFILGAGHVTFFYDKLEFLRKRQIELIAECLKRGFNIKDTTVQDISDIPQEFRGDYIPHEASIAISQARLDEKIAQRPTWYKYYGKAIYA

SMILES | inhibition at 40 µM [1] | D37 (37% survival) (wild-type MEFs) | relative inhibition among the compounds [2]
Cc1cc(/C=C/C#N)cc(C)c1Nc1nc(Nc2ccc3scnc3c2)c2nc[nH]c2n1 [Purine P2] | < 1% | 6 µM | 
Cc1nc2ccc(Nc3nc(Nc4c(C)cc(/C=C/C#N)cc4C)nc4[nH]cnc34)cc2s1 [Purine P6] | 32% | 5 µM | 
Cc1cc(/C=C/C#N)cc(C)c1Nc1nc(Nc2ccc3c(c2)CCC3)c2nc[nH]c2n1 [Purine P7] | 13% | 12 µM | 
Cc1cc(/C=C/C#N)cc(C)c1Nc1nc(Nc2ccc3c(c2)OCO3)c2nc[nH]c2n1 [Purine P8] | 14% | 7 µM | poorest inhibition
